Measured values taken from ChEMBL document CHEMBL1201862, “PubChem BioAssay data set” (2004).
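Values below derive from 48-hour exposures of cells grown in 96-well plates, with endpoints linearly interpolated between the two concentrations bracketing the appropriate inhibition level. Abbreviation: GI50, concentration required for 50% inhibition of growth.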 The source made the active and inactive calls. Cut-off read from the data, not from the text of the source: active = GI50 up to about 1.1 µM and inactive = higher.

Assays:
Test in all cases: DTP human tumour cell line panel, 48 h
SF-268 = system: SF-268
RPMI-8226 = system: RPMI-8226
SK-OV-3 = system: SK-OV-3
SK-MEL-28 = system: SK-MEL-28
NCI-H460 = system: NCI-H460
NCI-H226 = system: NCI-H226
SW-620 = system: SW-620
HOP-92 = system: HOP-92
OVCAR-8 = system: OVCAR-8
COLO 205 = system: COLO 205
U-251 = system: U-251
DMS-114 = system: DMS-114
CCRF-CEM = system: CCRF-CEM
KM12 = system: KM12
MOLT-4 = system: MOLT-4
HCC 2998 = system: HCC 2998
A549 = system: A549
HCT-15 = system: HCT-15
SR = system: SR
HOP-18 = system: HOP-18
Malme-3M = system: Malme-3M
SK-MEL-5 = system: SK-MEL-5
IGROV-1 = system: IGROV-1
RXF 393 = system: RXF 393
OVCAR-5 = system: OVCAR-5
NCI-H23 = system: NCI-H23
HCT-116 = system: HCT-116
SNB-19 = system: SNB-19
CAKI-1 = system: CAKI-1
ACHN = system: ACHN
HOP-62 = system: HOP-62
NCI-H522 = system: NCI-H522
DLD-1 = system: DLD-1
786-0 = system: 786-0
SN12C = system: SN12C
EKVX = system: EKVX
UACC-257 = system: UACC-257
SK-MEL-2 = system: SK-MEL-2
K562 = system: K562
DMS-273 = system: DMS-273
KM-20L2 = system: KM-20L2
TK-10 = system: TK-10
HL-60 = system: HL-60
UACC-62 = system: UACC-62
HT-29 = system: HT-29
OVCAR-3 = system: OVCAR-3
SF-539 = system: SF-539
LOX IMVI = system: LOX IMVI
SF-295 = system: SF-295
LXFL 529 = system: LXFL 529
M14 = system: M14
XF498 = system: XF498
OVCAR-4 = system: OVCAR-4
UO-31 = system: UO-31
SNB-75 = system: SNB-75
SNB-78 = system: SNB-78
M19-MEL = system: M19-MEL
A498 = system: A498

Cc1nc2sccn2c1C(=O)NNC(N)=S
GI50 (SF-268): > 100 µM (inactive) | GI50 (RPMI-8226): > 100 µM (inactive) | GI50 (SK-OV-3): > 100 µM (inactive) | GI50 (SK-MEL-28): > 100 µM (inactive) | GI50 (NCI-H460): > 100 µM (inactive) | GI50 (NCI-H226): > 100 µM (inactive) | GI50 (SW-620): > 100 µM (inactive) | GI50 (HOP-92): 77.6 µM (inactive) | GI50 (OVCAR-8): > 100 µM (inactive) | GI50 (COLO 205): > 100 µM (inactive) | GI50 (U-251): > 100 µM (inactive) | GI50 (DMS-114): > 100 µM (inactive) | GI50 (CCRF-CEM): > 100 µM (inactive) | GI50 (KM12): > 100 µM (inactive) | GI50 (MOLT-4): > 100 µM (inactive) | GI50 (HCC 2998): > 100 µM (inactive) | GI50 (A549): > 100 µM (inactive) | GI50 (HCT-15): > 100 µM | GI50 (SR): > 100 µM (inactive) | GI50 (HOP-18): > 100 µM (inactive) | GI50 (Malme-3M): > 100 µM (inactive) | GI50 (SK-MEL-5): > 100 µM (inactive) | GI50 (IGROV-1): > 100 µM (inactive) | GI50 (RXF 393): > 100 µM (inactive) | GI50 (OVCAR-5): > 100 µM (inactive) | GI50 (NCI-H23): > 100 µM (inactive) | GI50 (HCT-116): > 100 µM (inactive) | GI50 (SNB-19): > 100 µM (inactive) | GI50 (CAKI-1): > 100 µM (inactive) | GI50 (ACHN): > 100 µM (inactive) | GI50 (HOP-62): > 100 µM (inactive) | GI50 (NCI-H522): > 100 µM (inactive) | GI50 (DLD-1): > 100 µM (inactive) | GI50 (786-0): > 100 µM (inactive) | GI50 (SN12C): > 100 µM (inactive) | GI50 (EKVX): > 100 µM (inactive) | GI50 (UACC-257): > 100 µM (inactive) | GI50 (SK-MEL-2): > 100 µM (inactive) | GI50 (K562): > 100 µM (inactive) | GI50 (DMS-273): > 100 µM (inactive) | GI50 (KM-20L2): > 100 µM (inactive) | GI50 (TK-10): > 100 µM (inactive) | GI50 (HL-60): > 100 µM (inactive) | GI50 (UACC-62): > 100 µM (inactive) | GI50 (HT-29): > 100 µM (inactive) | GI50 (OVCAR-3): > 100 µM (inactive) | GI50 (SF-539): > 100 µM (inactive) | GI50 (LOX IMVI): > 100 µM (inactive) | GI50 (SF-295): > 100 µM (inactive) | GI50 (LXFL 529): > 100 µM (inactive)

C=C(Cl)Cc1c(O)c2c(c(O)c1CC(=C)Cl)C(=O)c1ccccc1C2=O
GI50 (RPMI-8226): > 100 µM (inactive) | GI50 (SK-OV-3): > 100 µM (inactive) | GI50 (SW-620): > 100 µM (inactive) | GI50 (OVCAR-8): > 100 µM (inactive) | GI50 (COLO 205): > 100 µM (inactive) | GI50 (U-251): > 100 µM (inactive) | GI50 (DMS-114): > 100 µM (inactive) | GI50 (CCRF-CEM): > 100 µM (inactive) | GI50 (MOLT-4): > 100 µM (inactive) | GI50 (HCC 2998): > 100 µM (inactive) | GI50 (M14): > 100 µM (inactive) | GI50 (A549): > 100 µM (inactive) | GI50 (XF498): > 100 µM (inactive) | GI50 (HCT-15): > 100 µM | GI50 (SR): > 100 µM (inactive) | GI50 (Malme-3M): > 100 µM (inactive) | GI50 (SK-MEL-5): > 100 µM (inactive) | GI50 (IGROV-1): > 100 µM (inactive) | GI50 (OVCAR-5): > 100 µM (inactive) | GI50 (CAKI-1): > 100 µM (inactive) | GI50 (ACHN): > 100 µM (inactive) | GI50 (HOP-62): > 100 µM (inactive) | GI50 (OVCAR-4): > 100 µM (inactive) | GI50 (DLD-1): > 100 µM (inactive) | GI50 (786-0): > 100 µM (inactive) | GI50 (SN12C): > 100 µM (inactive) | GI50 (EKVX): > 100 µM (inactive) | GI50 (SK-MEL-2): > 100 µM (inactive) | GI50 (K562): > 100 µM (inactive) | GI50 (DMS-273): > 100 µM (inactive) | GI50 (KM-20L2): > 100 µM (inactive) | GI50 (TK-10): > 100 µM (inactive) | GI50 (HL-60): > 100 µM (inactive) | GI50 (UACC-62): > 100 µM (inactive) | GI50 (LOX IMVI): > 100 µM (inactive) | GI50 (LXFL 529): > 100 µM (inactive)

OC/C=C(\I)CCCOCOCc1ccccc1
GI50 (SF-268): 27.7 µM (inactive) | GI50 (RPMI-8226): 18.2 µM (inactive) | GI50 (SK-OV-3): > 100 µM (inactive) | GI50 (SK-MEL-28): 37.9 µM (inactive) | GI50 (NCI-H460): 40.7 µM (inactive) | GI50 (NCI-H226): 27.4 µM (inactive) | GI50 (SW-620): 44 µM (inactive) | GI50 (HOP-92): 15.7 µM (inactive) | GI50 (OVCAR-8): 41.4 µM (inactive) | GI50 (COLO 205): 67.1 µM (inactive) | GI50 (U-251): 23.4 µM (inactive) | GI50 (DMS-114): 22.8 µM (inactive) | GI50 (CCRF-CEM): 20.7 µM (inactive) | GI50 (KM12): > 100 µM (inactive) | GI50 (MOLT-4): 3.1 µM (inactive) | GI50 (UO-31): 25.4 µM (inactive) | GI50 (HCC 2998): 34 µM (inactive) | GI50 (M14): 31.1 µM (inactive) | GI50 (A549): 32 µM (inactive) | GI50 (XF498): 14 µM (inactive) | GI50 (HCT-15): 38.5 µM | GI50 (SNB-75): 53.1 µM (inactive) | GI50 (SNB-78): 25.6 µM (inactive) | GI50 (SK-MEL-5): 22.1 µM (inactive) | GI50 (IGROV-1): 98.2 µM (inactive) | GI50 (RXF 393): 16.4 µM (inactive) | GI50 (OVCAR-5): 45.4 µM (inactive) | GI50 (NCI-H23): 26.3 µM (inactive) | GI50 (HCT-116): 28.1 µM (inactive) | GI50 (SNB-19): 52.8 µM (inactive) | GI50 (ACHN): 32.3 µM (inactive) | GI50 (HOP-62): 42.5 µM (inactive) | GI50 (OVCAR-4): 24.5 µM (inactive) | GI50 (NCI-H522): 23.3 µM (inactive) | GI50 (M19-MEL): 32.1 µM (inactive) | GI50 (DLD-1): > 100 µM (inactive) | GI50 (786-0): 28.8 µM (inactive) | GI50 (SN12C): 42.9 µM (inactive) | GI50 (EKVX): 36.5 µM (inactive) | GI50 (SK-MEL-2): 19.2 µM (inactive) | GI50 (K562): 40 µM (inactive) | GI50 (DMS-273): 21.8 µM (inactive) | GI50 (KM-20L2): 29.5 µM (inactive) | GI50 (TK-10): > 100 µM (inactive) | GI50 (HL-60): 15.9 µM (inactive) | GI50 (UACC-62): 34.6 µM (inactive) | GI50 (HT-29): 36.2 µM (inactive) | GI50 (A498): 60.8 µM (inactive) | GI50 (OVCAR-3): 30.8 µM (inactive) | GI50 (SF-539): 50.6 µM (inactive) | GI50 (LOX IMVI): 19.2 µM (inactive) | GI50 (SF-295): 36.1 µM (inactive) | GI50 (LXFL 529): 48.9 µM (inactive)

C=CCC1(C(=O)OC(C)(C)C)C(OC)=C(C(=O)OC(C)(C)C)C2C1C(C(=O)OC(C)(C)C)=C(OC)C2(CC=C)C(=O)OC(C)(C)C (stereo not drawn)
GI50 (SF-268): > 100 µM (inactive) | GI50 (RPMI-8226): > 100 µM (inactive) | GI50 (SK-OV-3): > 100 µM (inactive) | GI50 (SK-MEL-28): > 100 µM (inactive) | GI50 (NCI-H226): > 100 µM (inactive) | GI50 (SW-620): > 100 µM (inactive) | GI50 (HOP-92): > 100 µM (inactive) | GI50 (OVCAR-8): > 100 µM (inactive) | GI50 (COLO 205): > 100 µM (inactive) | GI50 (DMS-114): > 100 µM (inactive) | GI50 (CCRF-CEM): > 100 µM (inactive) | GI50 (KM12): > 100 µM (inactive) | GI50 (MOLT-4): > 100 µM (inactive) | GI50 (UO-31): > 100 µM (inactive) | GI50 (HCC 2998): > 100 µM (inactive) | GI50 (M14): > 100 µM (inactive) | GI50 (A549): > 100 µM (inactive) | GI50 (XF498): > 100 µM (inactive) | GI50 (HCT-15): > 100 µM | GI50 (SR): > 100 µM (inactive) | GI50 (HOP-18): > 100 µM (inactive) | GI50 (SNB-75): > 100 µM (inactive) | GI50 (Malme-3M): > 10 µM (inactive) | GI50 (IGROV-1): > 100 µM (inactive) | GI50 (RXF 393): > 100 µM (inactive) | GI50 (OVCAR-5): > 100 µM (inactive) | GI50 (NCI-H23): > 100 µM (inactive) | GI50 (SNB-19): > 100 µM (inactive) | GI50 (ACHN): > 100 µM (inactive) | GI50 (NCI-H522): > 100 µM (inactive) | GI50 (M19-MEL): > 100 µM (inactive) | GI50 (DLD-1): > 100 µM (inactive) | GI50 (786-0): > 100 µM (inactive) | GI50 (SN12C): > 100 µM (inactive) | GI50 (EKVX): > 100 µM (inactive) | GI50 (UACC-257): > 100 µM (inactive) | GI50 (SK-MEL-2): > 100 µM (inactive) | GI50 (K562): > 100 µM (inactive) | GI50 (TK-10): 64.6 µM (inactive) | GI50 (HL-60): > 100 µM (inactive) | GI50 (UACC-62): > 100 µM (inactive) | GI50 (OVCAR-3): > 100 µM (inactive) | GI50 (SF-539): > 100 µM (inactive) | GI50 (SF-295): > 100 µM (inactive)
